Where two headings read alike, the source gives them in different places.
What was measured:
[1] = target: T1, p38 MAPKα isoform (MAPK14) (Homo sapiens, UniProt Q16539); assay: Enzyme inhibition assay (FRET, Z-LYTE), p38 MAPKα via MAPKAP-K2 activation; type: biochemical; settings: read-out: Enzyme Inhibition IC50 p38α
T1 construct: purchased Invitrogen
Description: (§1) The enzyme inhibitory activities of compounds disclosed herein were determined by fluorescence resonance energy transfer (FRET) using synthetic peptides labelled with both donor and acceptor fluorophores (Z-LYTE, Invitrogen Ltd., Paisley, UK). Recombinant, phosphorylated p38 MAPKγ (MAPK12:Invitrogen) was diluted in HEPES buffer, mixed with the test compound at the desired final concentrations and incubated for 2 hr at RT. The FRET peptide (2 μM) and ATP (100 μM) were added to the enzyme/compound mixture and incubated for 1 hr. Development reagent (protease) was added for 1 hr prior to detection in a fluorescence microplate reader (Varioskan® Flash, ThermoFisher Scientific). The site-specific protease cleaves non-phosphorylated peptide only and eliminates the FRET signal. Phosphorylation levels of each reaction were calculated using the ratio of coumarin emission (donor) over fluorescein emission (acceptor) for which high ratios indicate high phosphorylation and low ratios indicate low phosphorylation levels. The percentage inhibition of each reaction was calculated relative to non-inhibited control and the 50% inhibitory concentration (IC50 value) then calculated from the concentration-response curve.
For the p38 MAPKα isoform (MAPK14: Invitrogen), enzyme activity was evaluated indirectly by determining the level of activation/phosphorylation of the down-stream molecule, MAPKAP-K2. The p38 MAPKα protein was mixed with the test compound for 2 hr at RT. […] Development reagent was then added and the mixture incubated for 1 hr before detection by fluorescence completed the assay protocol.

p38 MAPKγ (MAPK12) = target: T2, p38 MAPKγ (MAPK12) (Homo sapiens, UniProt P53778); assay: Enzyme inhibition assay (FRET, Z-LYTE), p38 MAPKγ; type: biochemical; settings: read-out: Enzyme Inhibition IC50 p38γ
T2 construct: purchased Invitrogen
T2 sequence (P53778 1-367): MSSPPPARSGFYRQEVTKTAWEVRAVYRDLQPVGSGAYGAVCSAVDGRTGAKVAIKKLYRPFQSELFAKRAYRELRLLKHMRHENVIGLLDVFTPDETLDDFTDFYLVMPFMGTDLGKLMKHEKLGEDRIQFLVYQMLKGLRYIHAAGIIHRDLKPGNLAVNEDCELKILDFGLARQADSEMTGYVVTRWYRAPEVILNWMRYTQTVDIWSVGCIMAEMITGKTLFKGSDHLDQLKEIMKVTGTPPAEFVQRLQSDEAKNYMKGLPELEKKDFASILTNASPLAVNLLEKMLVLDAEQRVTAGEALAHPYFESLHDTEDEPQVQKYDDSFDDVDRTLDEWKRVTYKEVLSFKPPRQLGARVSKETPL
Description: as §1

[2] = test system: TNFα release in THP-1 cells; assay: LPS-induced TNFα release in THP-1 cells; type: cell-based, human
Description: LPS-Induced TNFα Release in THP-1 Cells
THP-1 cells, a human monocytic cell line, were stimulated with 3 μg/mL of LPS (from E. Coli; 0111:B4, Sigma) for 4 hr and the supernatant collected for determination of the TNFα concentration by sandwich ELISA (Duo-set, R&D systems). The inhibition of TNFα production was calculated at each concentration by comparison with vehicle control. The 50% inhibitory concentration (IC50) was determined from the resultant concentration-response curve.

[3] = test system: TNFα release in d-U937 cells; assay: LPS-induced TNFα release in d-U937 cells; type: cell-based, human
Description: (§2) LPS-Induced TNFα/IL-8 Release in d-U937 Cells
(§3) U937 cells, a human monocytic cell line, were differentiated to macrophage-type cells by incubation with phorbol myristate acetate (PMA; 100 ng/ml) for 48 to 72 hr. Cells were pre-incubated with final concentrations of test compound for 2 hr and were then stimulated with 0.1 μg/mL of LPS (from E. Coli: O111:B4, Sigma) for 4 hr. The supernatant was collected for determination of TNFα and IL-8 concentrations by sandwich ELISA (Duo-set, R&D systems). The inhibition of TNFα production was calculated as a percentage of that achieved by 10 μg/mL of BIRB796 at each concentration of test compound by comparison against vehicle control. The relative 50% effective concentration (REC50) was determined from the resultant concentration-response curve. The inhibition of IL-8 production was calculated at each concentration of test compound by comparison with vehicle control. The 50% inhibitory concentration (IC50) was determined from the resultant concentration-response curve.

[4] = test system: IL-8 release in d-U937 cells; assay: LPS-induced IL-8 release in d-U937 cells; type: cell-based, human
Description: as §2, §3

[5] = test system: ICAM-1 induction in BEAS2B cells; assay: Poly I:C-induced ICAM-1 induction in BEAS2B cells; type: cell-based, human; settings: read-out: PolyIC/ICAM1 IC50 BEAS2B
Description: Poly I:C-Induced ICAM-1 Induction in BEAS2B Cells
Poly I:C (1 μg/mL) (Invivogene Ltd., San Diego, Calif.) was transfected into BEAS2B cells (human bronchial epithelial cells, ATCC) with Oligofectamine (Invitrogen, Carlsbad, Calif.). Cells were pre-incubated with final concentrations of test compounds for 2 hr and the level of ICAM1 expression on the cell surface was determined by cell-based ELISA. At a time point 18 hr after poly I:C transfection, cells were fixed with 4% formaldehyde in PBS and then endogenous peroxidase was quenched by the addition of 0.1% sodium azide and 1% hydrogen peroxide. Cells were washed with wash-buffer (0.1% Tween in PBS: PBS-Tween). and after blocking the wells with 5% milk in PBS-Tween for 1 hr, the cells were incubated with anti-human ICAM-1 antibody (Cell Signaling Technology, Danvers, Mass.) in 1% BSA PBS overnight at 4° C. The cells were washed with PBS-Tween and incubated with the secondary antibody (HRP-conjugated anti-rabbit IgG, Dako Ltd., Glostrup, Denmark). The ICAM-1 signal was detected by adding substrate and reading the absorbance at 450 nm against a reference wavelength of 655 nm using a spectrophotometer. The cells were then washed with PBS-Tween and total cell numbers in each well were determined by reading absorbance at 595 nm after Crystal Violet staining and elution by 1% SDS solution. The measured OD 450-655 readings were corrected for cell number by dividing with the OD595 reading in each well. The inhibition of ICAM-1 expression was calculated at each concentration of test compound by comparison with vehicle control. The 50% inhibitory concentration (IC50) was determined from the resultant concentration-response curve.

[6] = test system: Differentiated U937 cells; assay: Cell viability MTT assay; type: cell-based, human; settings: negative = apparent increase in viability; for MTT Assay (Viability) 4 h d-U937, percentage loss of cell viability: 4 hr in 5% FCS; for MTT Assay (Viability) 24 h d-U937, percentage loss of cell viability: 24 h in 10% FCS
Description: Differentiated U937 cells were pre-incubated with each test compound under two protocols: the first for 4 hr in 5% FCS and the second in 10% FCS for 24 h. The supernatant was replaced with 200 μL of new media and 10 μL of MTT stock solution (5 mg/mL) was added to each well. After incubation for 1 hr the media were removed, 200 μL of DMSO was added to each well and the plates were shaken lightly for 1 hr prior to reading the absorbance at 550 nm. The percentage loss of cell viability was calculated for each well relative to vehicle (0.5% DMSO) treatment. Consequently an apparent increase in cell viability for drug treatment relative to vehicle is tabulated as a negative percentage.

[7] = Homo sapiens, dU937, relative to 10 μg/mL BIRB796, read-out: LPS/TNFα REC50 d-U937

T1 sequence (Q16539 whole entry, canonical isoform): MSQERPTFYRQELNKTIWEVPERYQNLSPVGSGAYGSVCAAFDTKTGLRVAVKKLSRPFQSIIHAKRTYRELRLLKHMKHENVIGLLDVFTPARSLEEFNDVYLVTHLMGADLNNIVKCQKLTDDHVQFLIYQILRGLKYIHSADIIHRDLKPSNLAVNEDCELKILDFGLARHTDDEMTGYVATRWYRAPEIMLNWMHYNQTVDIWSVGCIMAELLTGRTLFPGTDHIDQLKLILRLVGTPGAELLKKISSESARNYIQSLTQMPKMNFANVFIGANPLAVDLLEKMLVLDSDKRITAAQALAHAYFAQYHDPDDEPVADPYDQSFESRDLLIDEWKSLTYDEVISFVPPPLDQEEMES

IC50 [1] | IC50 (p38 MAPKγ (MAPK12)) | IC50 ([2]; Homo sapiens) | EC50 [3, 7] | IC50 ([4]; Homo sapiens, dU937) | IC50 [2] | EC50 ([3]; relative to 10 μg/mL BIRB796, read-out: LPS/TNFα REC50 d-U937) | IC50 [4] | SMILES | IC50 ([5]; Homo sapiens, BEAS-2B) | MTT Assay (Viability) 4 h d-U937, percentage loss of cell viability [6] | MTT Assay (Viability) 24 h d-U937, percentage loss of cell viability [6] | IC50 [5]
29.4 nM | > 16300 nM | 4.7 nM | 6.7 nM | 48.4 nM |  |  |  | CNC(=O)Nc1cc(COc2ccc(NC(=O)Nc3cc(C(C)(C)C)nn3-c3ccc(OC)cc3)c(Cl)c2Cl)ccn1 [Example 18, 1-(3-tert-Butyl-1-(4-methoxyphenyl)-1H-pyrazol-5-yl)-3-(2,3-dichloro-4-((2-(3-methylureido)pyridin-4-yl)methoxy)phenyl)urea] | 343 nM | 39.5% | −4.6% | 
58.8 nM | 175 nM | 1.7 nM | 0.3 nM | 13.4 nM |  |  |  | COCC(=O)Nc1cc(Oc2ccc(NC(=O)Nc3cc(C(C)(C)C)nn3-c3ccc(C)cc3)c(Cl)c2Cl)ncn1 [Example 89, N-(6-(4-(3-(3-tert-butyl-1-p-tolyl-1H-pyrazol-5-yl)ureido)-2,3-dichlorophenoxy)pyrimidin-4-yl)-2-methoxyacetamide] | 1.8 nM | −49.9% | −7.5% | 
18.4 nM | 380 nM | 2.2 nM | 0.7 nM | 3.4 nM |  |  |  | COCC(=O)Nc1cc(Oc2ccc(NC(=O)Nc3cc(C(C)(C)C)nn3-c3ccc(C)cc3)c(Cl)c2Cl)ccn1 [Example 36, N-(4-(4-(3-(3-tert-butyl-1-p-tolyl-1H-pyrazol-5-yl)ureido)-2,3-dichlorophenoxy)pyridin-2-yl)-2-methoxyacetamide] | 1.9 nM | −11.2% | 68.8% | 
7.7 nM | 58.5 nM |  |  |  | 1.1 nM | 0.8 nM | 4.9 nM | COc1ccc(-n2nc(C(C)(C)C)cc2NC(=O)Nc2ccc(Oc3ccnc(NC(=O)N4CC[C@@H](N(C)C)C4)c3)c(Cl)c2Cl)cc1 [Example 81, (R)-N-(4-(4-(3-(3-tert-butyl-1-(4-methoxyphenyl)-1H-pyrazol-5-yl)ureido)-2,3-dichlorophenoxy)pyridin-2-yl)-3-(dimethylamino) pyrrolidine-1-carboxamide] |  | −8.7% | 33.3% | 14 nM
138 nM | 436 nM | 0.8 nM | 2.7 nM | 2.6 nM |  |  |  | COc1ccc(-n2nc(C(C)(C)C)cc2NC(=O)Nc2ccc(Oc3ccnc(NC(=O)N4CCCC4(C)C)c3)c(Cl)c2Cl)cc1 [Example 86, N-(4-(4-(3-(3-tert-butyl-1-(4-methoxyphenyl)-1H-pyrazol-5-yl)ureido)-2,3-dichlorophenoxy)pyridin-2-yl)-2,2-dimethylpyrrolidine-1-carboxamide] | 8 nM | −5.1% | 26.7% | 
63 nM | 35.9 nM | 3.7 nM | 54.1 nM | 160 nM |  |  |  | COCC(=O)Nc1cc(Oc2cc(Cl)c(NC(=O)Nc3cc(C(C)(C)C)nn3-c3ccc(C)cc3)cc2F)ccn1 [Example 38, N-(4-(4-(3-(3-tert-butyl-1-p-tolyl-1H-pyrazol-5-yl)ureido)-5-chloro-2-fluorophenoxy)pyridin-2-yl)-2-methoxyacetamide] | 24.8 nM | 0.6% | 64.1% | 
81.5 nM | > 17300 nM | 1770 nM | 164 nM | 12900 nM |  |  |  | CNC(=O)Nc1cc(COc2ccc(NC(=O)Nc3cc(C(C)(C)C)nn3-c3ccc(C)cc3)c3cccnc23)ccn1 [Example 21, 1-(3-tert-Butyl-1-p-tolyl-1H-pyrazol-5-yl)-3-(8-((2-(3-methylureido)pyridin-4-yl)methoxy)quinolin-5-yl)urea] | > 1730 nM | 14.5% | −12.0% | 
134 nM | 24 nM | 0.4 nM | 0.3 nM | 2.2 nM |  |  |  | COCC(=O)Nc1cc(Oc2ccc(NC(=O)Nc3cc(C(C)(C)C)nn3-c3ccc(C)cc3)c(F)c2F)ccn1 [Example 34, N-(4-(4-(3-(3-tert-butyl-1-p-tolyl-1H-pyrazol-5-yl)ureido)-2,3-difluorophenoxy)pyridin-2-yl)-2-methoxyacetamide] | 2.5 nM | 2.4% | 82.1% | 
17 nM | 123 nM | 1 nM | 0.6 nM | 21.6 nM |  |  |  | COCC(=O)Nc1nccc(Oc2ccc(NC(=O)Nc3cc(C(C)(C)C)nn3-c3ccc(CO)cc3)c(Cl)c2Cl)n1 [Example 94, N-(4-(4-(3-(3-tert-butyl-1-(4-hydroxymethylphenyl)-1H-pyrazol-5-yl)ureido)-2,3-dichlorophenoxy)pyrimidin-2-yl)-2-methoxyacetamide] | 8.9 nM | 2.3% | 76.6% | 

— patent US10000471B2, “Pyrazole P38 map kinase inhibitors” (Respivert Limited, priority 2010, dated 2018)
